In ChEMBL document CHEMBL1135757, “Orally active, water-soluble antimalarial 3-aryltrioxanes: short synthesis and preclinical efficacy testing in rodents” (J Med Chem, 2002):

The compounds below were run on Plasmodium berghei (assay: (§1) Antimalarial activity against Plasmodium berghei in mice (Mus musculus)).
Type: functional
O=C(O)c1ccc([C@@]23CC[C@H]4CCC[C@H]5CCO[C@H](O2)[C@@]45OO3)cc1 showed an ED50 of 15 mg/kg and an ED90 of 51 mg/kg. Compound O=C(O)c1ccc([C@]23CC[C@H]4CCCC[C@@]4(OO2)[C@H](OCc2ccccc2)O3)cc1 has an ED50 of 17 mg/kg and an ED90 of 59 mg/kg. Compound C[C@@H]1[C@H](OCc2ccc(C(=O)O)cc2)O[C@@H]2O[C@@]3(C)CC[C@@H]4[C@@H](C)CC[C@@H]1[C@]24OO3 [ARTELINIC ACID] has an ED50 of 9.6 mg/kg and an ED90 of 29 mg/kg.

Each compound was assayed on Plasmodium berghei (assay: as §1).
Type: functional, organism-based
With Fc1ccc([C@]23CC[C@H]4CCCC[C@@]4(OO2)[C@H](OCc2ccccc2)O3)cc1 the IC50 was 31 nM. For c1ccc([C@@]23CC[C@H]4CCC[C@H]5CCO[C@H](O2)[C@@]45OO3)cc1, the IC50 was 1.3 nM. In the case of C[C@@H]1CC[C@H]2[C@@H](C)C(=O)O[C@@H]3O[C@@]4(C)CC[C@@H]1[C@]32OO4 [ARTEMISININ], the IC50 is reported as 9.4 nM.
